Measurements: patent US20230346737A1, “COMPOUNDS AND METHODS FOR PREVENTION AND TREATMENT OF VIRUS INFECTIONS” (priority 2020, published 2023)
Like-named read-outs stand apart in the source and are kept apart here.

Legend:
SARS-CoV-2 3CLpro = biological target: T1, SARS-CoV-2 3CLpro (Severe acute respiratory syndrome coronavirus 2, UniProt P0DTD1); test: Real-time FRET protease assay with SARS-CoV-2 3CLpro and dose-response curve analysis; type: biochemical
T1 construct: containing 0.25 μM SARS-CoV-2 3CLpro

[1] = biological target: T2, sodium taurocholate cotransporting polypeptide (NTCP) (Homo sapiens, UniProt Q14973); test: PreS1-NTCP pull down assay; type: binding; conditions: 0, 10, 20 and 100 μM
T2 construct: expressed in transfected cells; host or cells: Huh7 (NTCP); E. coli BL21(DE3) (GST fusion bait)
T2 sequence (Q14973 1-349): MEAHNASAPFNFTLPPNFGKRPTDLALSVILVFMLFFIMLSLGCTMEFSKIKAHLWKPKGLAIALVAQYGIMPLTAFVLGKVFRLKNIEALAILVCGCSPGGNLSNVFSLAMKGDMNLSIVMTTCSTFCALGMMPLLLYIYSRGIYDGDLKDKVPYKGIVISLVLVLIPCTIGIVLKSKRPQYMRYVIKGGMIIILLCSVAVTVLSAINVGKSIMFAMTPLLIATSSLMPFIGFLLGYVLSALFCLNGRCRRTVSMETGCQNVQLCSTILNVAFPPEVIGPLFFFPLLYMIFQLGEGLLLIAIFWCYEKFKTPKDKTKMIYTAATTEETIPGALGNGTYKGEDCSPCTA
Experimental: Expression and purification of recombinant fusion proteins and the GST pull-down assay were performed as described previously. Briefly, expression of GST fusion proteins in E. coli BL21(DE3) was induced with 0.5 mM isopropyl-β-D-thiogalactopyranoside, then the bacterial cells were lysed by sonication at 4° C. in PBS containing 1% Triton X-100 (PBST) and separated into soluble and insoluble fractions by centrifugation at 13,800 g for 10 min at 4° C. To perform GST pull-down assays, the soluble fraction of bacterial lysates containing GST-fusion proteins was incubated for 3 hours at 4° C. with glutathione-Sepharose 4B beads (GE Healthcare Bio-Sciences), then the beads were washed 3 times with PBST before being incubated at 4° C. overnight with Huh7 cell lysate with overexpressed IA-NTCP prepared by lysis in PBST containing a protease inhibitor cocktail (1 mM PMSF, 10 μg/ml of aprotinin, 1 μg/ml of pepstatin A, 1 μg/ml of leupeptin). The beads were then washed with PBST, resuspended in sample buffer (12.5 mM Tris-HCl, pH 6.8, 2% SDS, 20% glycerol, 0.25% bromphenol blue, 5% b-mercaptoethanol), and subjected to SDS-polyacrylamide gel electrophoresis and examined by Western blot analysis.
To evaluate the effects of inhibitor on inhibiting HBV infection, cell lysis extracted from cells treated with AR101-DS3 or AR101-DS4.

[2] = Real-Time, 0-100 μM, pre-incubated 1 h at 37° C. with 0.25 μM 3CLpro, read-out: IC50 (μM), inhibition of SARS-CoV-2 3CLpro (Real-Time)

Row | Compound | IC50 (SARS-CoV-2 3CLpro; [2]) [µM] | also measured
1 | CC(=O)O[C@@H]1[C@@H](O)[C@@H](OC(C)=O)[C@H](Oc2c(-c3ccc(O)cc3)oc3cc(O)cc(O)c3c2=O)O[C@H]1C [ARH 007-DS5, kaempferol-3-O-(2,4-O-diacetyl-Alpha-L-rhamnopyranoside)] | 48.2 | 
2 | CC(=O)O[C@@H]1[C@@H](OC(C)=O)[C@@H](O)[C@H](Oc2c(-c3ccc(O)cc3)oc3cc(O)cc(O)c3c2=O)O[C@H]1C [ARH 007-DS4, kaempferol-3-O-(3,4-O-diacetyl-Alpha-L-rhamnopyranoside)] | 18.8 | 
3 | C=C(CC[C@@H](C(=O)O)[C@H]1C[C@H](OC(C)=O)[C@@]2(C)C3=C(CC[C@]12C)[C@@]1(C)CC[C@H](O)C(C)(C)[C@@H]1CC3)C(C)C [AR101-DS3] |  | amount of NTCP from pull down assay [1]: dose dependent increase
4 | O=c1cc(O)oc(/C=C/c2ccc(O)c(O)c2)c1 [ARH 019-DS2, 2-[(E)-2-(3,4-dihydroxyphenyl)ethenyl]-6-hydroxypyran-4-one] | 2.49 | 
5 | CC(=O)/C=C(O)/C=C/c1ccc(O)c(O)c1 [ARH 019-DS1, 6-(3,4-dihydroxyphenyl)-4-hydroxyhexa-3,5-dien-2-one] | 19.2 | 
6 | CC1(C)CCC[C@@]2(C)Oc3c(O)ccc(-c4oc5cc(O)cc(O)c5c(=O)c4O)c3C[C@@H]12 [ARH 020-DS2, ugonin N] | 6.33 | 
7 | C=C(CC[C@@H](C(=O)O)[C@H]1CC[C@@]2(C)C3=CC[C@H]4C(C)(C)[C@@H](O)CC[C@]4(C)C3=CC[C@]12C)C(C)C [AR101-DS4] |  | amount of NTCP from pull down assay [1]: significant decreased
8 | CC1=CCC(C(C)(C)O)C[C@@H]1O (stereo partly drawn) [ARH013-DS1, trans-p-menth-6-ene-2,8-diol] |  | IC50 (SARS-CoV-2 3CLpro): 32.9 µM
9 | C=C1CCCC(C)(C)C1Cc1c(O)cc2oc(-c3ccc(O)c(O)c3)cc(=O)c2c1O (stereo not drawn) [ARH 020-DS1, ugonin J] | 14.9 | 
